# Experimental data published in US20230390353A1, “PHARMACEUTICAL COMPOSITION FOR TREATING MYOCARDIAL ISCHEMIA AND PREPARATION METHOD THEREFOR” (TASLY PHARMACEUTICAL GROUP CO., LTD., priority 2021, published 2023).
# Legend:
# [1] = tested on: rats with myocardial ischemia; experiment: Myocardial histopathology detection in rats with myocardial ischemia; type: in vivo, SD rats; settings: myocardial pathology
# From the text: 110 experimental animals were purchased, of which 10 animals were set as a sham-operation group, and 100 animals were used for modeling left anterior descending coronary artery ligation. After modeling, surviving rats were randomly divided into a vehicle control group, a traditional Chinese medicine group, a ranolazine group 1, a ranolazine group 2, a ranolazine group 3, a pharmaceutical composition group 1 of the present invention and a pharmaceutical composition group 2 of the present invention according to body weight. After therapeutic administration for 28 days, the rats from the vehicle control group were given the same amount of menstruum by gavage. On the 28th day of intragastric administration, 6 rats in each group were randomly selected for echocardiography. After intragastric administration of 60 min on Day 30, a weight-bearing swimming test was performed, and animal samples were taken after the end of weight-bearing swimming. […] The administration of the pharmaceutical composition of the present invention could reduce myocardial fibrosis to varying degrees, causing a certain protective effect on the ischemic myocardium, and the effect of the pharmaceutical composition group 2 of the present invention was better.
# myocardial Na^+—K^+-ATP = experiment: Energy metabolism related enzyme detection, myocardial Na+-K+-ATP activity; type: in vivo, SD rats; settings: myocardium of myocardial ischemia rats after treatment
# From the text: (§1) 110 experimental animals were purchased, of which 10 animals were set as a sham-operation group, and 100 animals were used for modeling left anterior descending coronary artery ligation. After modeling, surviving rats were randomly divided into a vehicle control group, a traditional Chinese medicine group, a ranolazine group 1, a ranolazine group 2, a ranolazine group 3, a pharmaceutical composition group 1 of the present invention and a pharmaceutical composition group 2 of the present invention according to body weight. After therapeutic administration for 28 days, the rats from the vehicle control group were given the same amount of menstruum by gavage. On the 28th day of intragastric administration, 6 rats in each group were randomly selected for echocardiography. After intragastric administration of 60 min on Day 30, a weight-bearing swimming test was performed, and animal samples were taken after the end of weight-bearing swimming.
# [2] = tested on: myocardial Ca^2+—Mg^2+-ATP; experiment: Energy metabolism related enzyme detection, myocardial Ca2+-Mg2+-ATP activity; type: in vivo, SD rats; settings: myocardium of myocardial ischemia rats after treatment
# From the text: as §1
# normal mice = experiment: Weight-bearing swimming time in normal mice; type: in vivo; settings: normal BALB/c mice, 7 days pre-administration, 30 min after last administration, 5% body weight load; ranolazine 205 mg/kg, traditional Chinese medicine 68 mg/kg, composition 34 + ranolazine 102 mg/kg
# Method: According to the reference, 40 male mice are randomly divided into 4 groups (n=10): a normal group, a ranolazine group, a traditional Chinese medicine group and a pharmaceutical composition group of the present invention are administered in advance for 7 days, and the mice in the normal group are administered intragastrically with equivalent distilled water. Swimming tests are performed 30 min after the last administration. Mice are fixed a 5% weight of its body weight on the tail, and then placed in a large container filled with water of about 20 cm. Water should not be overfilled, so as to prevent mice from jumping out. The mice are forced to swim to exhaustion until they swim to death, and the time is recorded as the weight-bearing swimming time of the mice. See Table 5 for grouping and dose setting.
# [3] = tested on: rats with myocardial ischemia; experiment: Echocardiography (cardiac function) in rats with myocardial ischemia; type: in vivo, SD rats; settings: Day 28, 60 min after gavage
# From the text: as §1, with “After” for “110 experimental animals were purchased, of which 10 animals were set as a sham-operation group, and 100 animals were used for modeling left anterior descending coronary artery ligation. After”, “swimming. After intragastric administration of 60 min on Day 28, 6 rats in each group were randomly selected, and the cardiac function was detected by a portable b-ultrasound instrument. The changes of cardiac ejection fraction (EF) and E/A were detected.” for “swimming.”
# [4] = tested on: rats with myocardial ischemia; experiment: Weight-bearing swimming duration test in rats with myocardial ischemia; type: in vivo, SD rats; settings: gavage, Day 30, 60 min after dose, 5% load
# From the text: as §1, with “swimming. After intragastric administration of 60 min on Day 30, the experimental animals were subjected to the weight-bearing swimming test. After weighing, the rats, fixed a 5% weight of its body weight on the tail were placed in a transparent container filled with water with an inner diameter of 19 cm and a water depth of 30 cm. The water temperature was 25±2° C. The rats swimming to exhaustion were judged by the standard of losing balance and the head submerged for more than 10 seconds. The time of swimming was recorded as the time of weight-bearing swimming.” for “swimming.”
structure (smiles),measurement,setting,value
"COc1ccccc1OCC(O)CN1CCN(CC(=O)Nc2c(C)cccc2C)CC1 (racemic) [Ranolazine, (±)-N-(2,6-dimethylphenyl)-4-[2-hydroxy-3-(2-methoxyphenoxy)propyl]-1-piperazine acetamide]",Basically normal (number of cases),"[1]; ranolazine group 1, 100 mg/kg",4 number of cases
same,Mild (cardiac muscle fiber partially replaced by collagen fiber),"[1]; ranolazine group 1, 100 mg/kg",1 number of cases
same,"Severe (decreased myocardial thickness, and occurrence of transmural myocardial infarction)","[1]; ranolazine group 1, 100 mg/kg",1 number of cases
same,Basically normal (number of cases),"[1]; ranolazine group 2, 50 mg/kg",3 number of cases
same,Mild (cardiac muscle fiber partially replaced by collagen fiber),"[1]; ranolazine group 2, 50 mg/kg",1 number of cases
same,"Severe (decreased myocardial thickness, and occurrence of transmural myocardial infarction)","[1]; ranolazine group 2, 50 mg/kg",2 number of cases
same,Basically normal (number of cases),"[1]; ranolazine group 3, 25 mg/kg",2 number of cases
same,Mild (cardiac muscle fiber partially replaced by collagen fiber),"[1]; ranolazine group 3, 25 mg/kg",2 number of cases
same,"Severe (decreased myocardial thickness, and occurrence of transmural myocardial infarction)","[1]; ranolazine group 3, 25 mg/kg",2 number of cases
same,Na^+—K^+-ATP,"myocardial Na^+—K^+-ATP; ranolazine group 1, 100 mg/kg",46.04 ± 8.57 µmol/h/g
same,Na^+—K^+-ATP,"myocardial Na^+—K^+-ATP; ranolazine group 2, 50 mg/kg",47.10 ± 6.57 µmol/h/g
same,Na^+—K^+-ATP,"myocardial Na^+—K^+-ATP; ranolazine group 3, 25 mg/kg",34.98 ± 9.26 µmol/h/g
same,Ca^2+—Mg^2+-ATP,"[2]; ranolazine group 1, 100 mg/kg",37.99 ± 8.20 µmol/h/g
same,Ca^2+—Mg^2+-ATP,"[2]; ranolazine group 2, 50 mg/kg",50.92 ± 6.18 µmol/h/g
same,Ca^2+—Mg^2+-ATP,"[2]; ranolazine group 3, 25 mg/kg",29.96 ± 7.66 µmol/h/g
same,Swimming time,normal mice,3746 ± 1837 s
same,E/A,"[3]; ranolazine group 1, 100 mg/kg",1.10 ± 0.09
same,Ejection Fraction (EF %),"[3]; ranolazine group 1, 100 mg/kg",55.32 ± 2.76 %
same,E/A,"[3]; ranolazine group 2, 50 mg/kg",1.06 ± 0.13
same,Ejection Fraction (EF %),"[3]; ranolazine group 2, 50 mg/kg",50.52 ± 2.15 %
same,E/A,"[3]; ranolazine group 3, 25 mg/kg",0.92 ± 0.08
same,Ejection Fraction (EF %),"[3]; ranolazine group 3, 25 mg/kg",45.03 ± 1.57 %
same,Weight-bearing swimming duration,"[4]; ranolazine group 1, 100 mg/kg",1927 ± 1450 s
same,Weight-bearing swimming duration,"[4]; ranolazine group 2, 50 mg/kg",1268 ± 513 s
same,Weight-bearing swimming duration,"[4]; ranolazine group 3, 25 mg/kg",1108 ± 358 s
